{"source": "patent US20200101042A1", "about": "“4-METHYLUMBELLIFERONE TREATMENT FOR IMMUNE MODULATION” (Benaroya Research Institute at Virginia Mason, priority 2013, published 2020)", "key": {"DORmO mice": {"test_system": "DORmO mice", "assay": "Blood glucose in DORmO double transgenic mouse model of autoimmune diabetes, 4-MU in chow", "type": "in vivo", "source_text": "To determine that HA accumulates in the pancreatic islets and creates a permissive environment for autoimmune attacks during autoimmune diabetes disease progression, the DORmO double transgenic mouse model of autoimmune diabetes was used. DORmO mice predictably develop autoimmune diabetes because they are bred to have both a target antigen on their insulin producing beta-cells as well as an immune system that specifically recognizes that antigen. DORmO mice are the result of a cross between RIPmOVA mice (a strain that carries a gene specific for hen egg ovalbumin (OVA) that is only expressed on beta-cells, emulating the auto-antigen) and DO11.10 mice (a strain that carries a T-cell receptor transgene specific for OVA, emulating auto-reactive CD4+ T cells). […] A group of control mice was treated with 4-MU as well in order to see if 4-MU alters the blood glucose levels of those mice. […] The DORmO mice on control chow had to be sacrificed after getting diabetic according to the animal protocol. Another treatment group was established where the 4-MU treatment started at 12 weeks of age when the DORmO mice were already diabetic. […] The animals stained for HA were also stained for insulin. […] The pictures in the upper row show representative images of insulin staining in pancreatic islets in control animals treated with normal chow, (left column) or treated with 4-MU (right column)."}, "[1]": {"test_system": "HA accumulation in the pancreatic islets", "assay": "Immuno-staining for HA in pancreatic islets after 4-MU treatment", "type": "in vivo, mouse", "details": "DORmO mice, 8 week start treatment group, versus DORmO mice on control chow", "source_text": "HA accumulation in the pancreatic islets was investigated through immuno-staining after 4-MU treatment in a few mice of the 8 week start treatment group. […] The pictures in the upper row show representative images of a HA staining in pancreatic islets in control animals treated with normal chow, left column, or treated with 4-MU, right column."}, "[2]": {"test_system": "insulin in pancreatic islets", "assay": "Immuno-staining for insulin in pancreatic islets after 4-MU treatment", "type": "in vivo, mouse", "details": "DORmO mice treated with 4-MU, 8 week start treatment group", "source_text": "The animals stained for HA were also stained for insulin. […] The pictures in the upper row show representative images of insulin staining in pancreatic islets in control animals treated with normal chow, (left column) or treated with 4-MU (right column)."}, "[3]": {"test_system": "MOG35-55 peptide-induced EAE in C57B1/6 mice", "assay": "MOG35-55 peptide-induced EAE mouse model of MS, EAE incidence and score", "type": "in vivo", "details": "for incidence of EAE: control 9/10", "source_text": "FIGS. 12A, 12B, and 12C graphically illustrate the mean EAE score as a function of days post induction in subjects treated with 4-MU according to a pretreatment, treatment, or intervention protocol, respectively.\nFor FIGS. 12A, 12B, and 12C, *P<0.05, ** P<0.01, ***P<0.001, Mann-Whitney."}, "[4]": {"test_system": "cells infiltrating into the spinal cord", "assay": "Immunologic profile of cells infiltrating the spinal cord at peak of EAE", "type": "in vivo, mouse", "details": "for CD4+ T-cell infiltration into the spinal cord: EAE day 22 after immunization", "experimental": "The effect of 4-MU treatment on EAE pathogenesis was analyzed by evaluating the immunologic profile of cells infiltrating into the spinal cord at the peak of disease (day 22 after immunization).\nFurther, considering the differential pathologic roles that Th1 and Th17 cells have in EAE (Axtell, R. C., et al., Clin. Rev. Allergy Immunol. 44, 114-120 (2013); Lowther, D. E., et al., Acta Neuropathol. 126, 501-515 (2013)), this change in the local Th cell profile can contribute to the prevention of the autoimmune attack on myelin."}, "CD4+ CD25+ cells": {"test_system": "CD4+ CD25+ cells", "assay": "CD25+ of CD4+ T-cells in spleen and lymph nodes of EAE mice", "type": "in vivo, mouse", "details": "EAE subjects, 4-MU started before immunization (pretreatment protocol)"}, "FoxP3+ T-cells": {"test_system": "FoxP3+ T-cells", "assay": "FoxP3+ T-cell numbers in lymphatic tissue after 4-MU treatment", "type": "in vivo, mouse"}, "[5]": {"details": "cited from earlier work"}, "[6]": {"details": "EAE mice after 4-MU treatment, FIG. 13B"}, "[7]": {"details": "EAE mice, 4-MU treatment, FIG. 13A"}}, "data": [{"smiles": "Cc1cc(=O)oc2cc(O)ccc12", "note": "[4-MU, 4-methylumbelliferone]", "values": [{"measurement": "normo-glycemia", "setting": "DORmO mice; DORmO mice, 4-MU added to chow", "value": "restored normo-glycemia"}, {"measurement": "blood glucose level / development of diabetes", "setting": "DORmO mice; DORmO mice, 4-MU in chow starting at 5 weeks of age", "value": "not to become diabetic"}, {"measurement": "blood glucose level", "setting": "DORmO mice; DORmO mice, 4-MU treatment starting at 8 weeks of age, at 23 weeks of age", "value": "normal blood glucose level"}, {"measurement": "blood glucose levels", "setting": "DORmO mice; already diabetic DORmO mice, 4-MU starting at 12 weeks of age, after 1 week of treatment", "value": "decrease of the blood glucose levels"}, {"measurement": "HA accumulation in pancreatic islets (immuno-staining)", "setting": "[1]", "value": "significant decrease"}, {"measurement": "insulin in the islets (immuno-staining)", "setting": "[2]", "value": "still had a significant amount of insulin in the islets"}, {"measurement": "EAE disease severity (mean EAE score)", "setting": "[3]; intervention protocol, 4-MU after the onset of neurological symptoms", "value": "significantly ameliorated disease as early as 3 days after start of treatment"}, {"measurement": "incidence of EAE", "setting": "[3]; pretreatment protocol, 4-MU 5% w/w in chow from 4 days before immunization", "value": "1/7"}, {"measurement": "incidence of EAE", "setting": "[3]; treatment protocol, 4-MU 5% w/w in chow after immunization boost on day 2, before symptoms", "value": "2/10"}, {"measurement": "CD4+ T-cell infiltration into the spinal cord", "setting": "[4]; intervention treatment", "value": "moderately reduced"}, {"measurement": "CD4+ T-cell infiltration into the spinal cord", "setting": "[4]; pretreatment and early treatment with 4-MU", "value": "substantially reduced"}, {"measurement": "IFN-γ producing Th1 populations among CD4+ T-cells in the CNS", "setting": "[4]; [6]", "value": "mainly reduced"}, {"measurement": "IL-17 producing Th17 population among CD4+ T-cells in the CNS", "setting": "[4]; [6]", "value": "less affected"}, {"measurement": "total lymphocyte counts in lymphatic organs (generalized immunosuppression)", "setting": "[4]; EAE mice on 4-MU", "value": "unchanged"}, {"measurement": "infiltration of CD8+ and CD4+ lymphocytes and macrophages", "setting": "[4]; [7]", "value": "reduced infiltration"}, {"measurement": "total numbers of cell infiltrates in spinal cord", "setting": "[4]; [7]", "value": "lower total numbers of cell infiltrates"}, {"measurement": "number of CD4+ CD25+ cells in the spleen and lymph nodes", "setting": "CD4+ CD25+ cells", "value": "increased number"}, {"measurement": "FoxP3+ T-cells in spleen, MLN, ILN and PLN", "setting": "FoxP3+ T-cells; D0.11 mice following OVA immunization, FIG. 13D", "value": "increase in FoxP3+ T-cells"}, {"measurement": "general immunosuppression", "setting": "FoxP3+ T-cells; D0.11 mice on 4-MU, data not shown", "value": "did not induce a general immunosuppression"}, {"measurement": "numbers of FoxP3+ T-cells in lymphatic tissue", "setting": "FoxP3+ T-cells; healthy mice, data not shown", "value": "significantly increased"}, {"measurement": "toxicity", "setting": "[5]; general statement", "value": "no known toxicity"}, {"measurement": "safety profile in clinical use", "setting": "[5]; human use in Europe and Asia (biliary spasm, gallstones)", "value": "excellent safety profile"}]}]}
